{"source": "patent US11564913B2", "about": "“Compositions and methods for treating cancer” (Children's Hospital Medical Center, priority 2019, dated 2023)", "key": {"[1]": {"test_system": "Nalm-1 cells", "assay": "Cell survival, trypan blue exclusion", "assay_type": "cell-based", "method": "(B) IODVA1-dependent survival curves of empty vector (red circles) or p190-BCR-ABL1 (black circles) expressing Ba/F3 cells and of Nalm-1 cells. […] (C) p190-BCR-ABL1 (grey line) or Mieg3 (black line) expressing Ba/F3 cells were allowed to grow for 1 day, treated with IODVA1 (IO1, 1 μM) for 1 day, and washed (black arrow). Cells were counted for 7 days using trypan blue exclusion. (D) Ba/F3 cells stably expressing p190-BCR-ABL1 were subjected to colony formation assay in soft agar (0.25% Noble Agar in RPMI/FBS/IL-3) in the presence of DMSO or IODVA1 (1 or 10 μM). Colonies were allowed to form for 10 days then stained with iodonitrotetrazolium (1 mg/mL). Data are representative of at least three independent experiments in triplicates. Note the smaller colony size in 1 μM IODVA1 treatment group. (E) Leukemic burden (%) of treated mice before treatment (left upper panel) and at the indicated treatment time was analyzed by flow cytometry of bone marrow aspirates as population containing B220^+/CD43^+ pro-B cells. (F) Count (%) of residual leukemic (EGFP^+-BCR-ABL1) cells in peripheral blood at weeks 3 and 5 for the secondary transplant mice from FIG. 1D. […]\nIODVA1 specifically targets BCR-ABL B-ALL cells in vitro. […] We then assessed survival of p190-BCR-ABL-transformed CD34^+ cells in the presence of IODVA1 by trypan blue exclusion. […]"}, "[2]": {"test_system": "active Cdc42 in p190-BCR-ABL Ba/F3 cells", "assay": "Active GTPase pull-down (GST-PAK-GBD)", "assay_type": "cell-based, murine", "settings": "3 μM", "method": "(§1) FIG. 13: IODVA1 decreases Rac activation and signaling. (A) Ba/F3 cells expressing p190-BCR-ABL1 were treated with IODVA1 (3 μM) as indicated and levels of active Rac (Rac-GTP) were assessed by pull-down using GST-PAK-GBD, followed by immunoblotting (upper panel) and densitometric quantification (lower panel). (B) Flow-cytometry analysis of pJNK, pS6, p4EBP, pPAK1, and pAKT of Ba/F3 cells expressing Mieg3 empty vector (light and dark blue) or p190-BCR-ABL1 (light and dark salmon) and treated with vehicle control or IODVA1 (3 μM) for 30 min. (C) Representative histogram data of the cell cycle analysis of Ba/F3 cells expressing p190-BCR-ABL and treated with vehicle control or IODVA1 (1, 3, and 10 μM) for 20 h. (D) Quantification of the average number of colonies of bone marrow wild-type (black) and Rac1^Δ/Δ+Rac2^−/− (red) p190-BCR-ABL1 leukemic cells treated with vehicle control or IODVA1 (IO1, 1 μM). ns—not significant, * p<0.05, ** p<0.01, *** p<0.001. (E) As in FIG. 13A, but cells were incubated for a fixed amount of time (1 h) at the indicated IODVA1 concentrations. (F) Ba/F3 cells expressing p190-BCR-ABL1 were treated with IODVA1 (3 μM) and lysed at the indicated times. Cell lysates were separated on SDS-PAGE and immunoblotted for pPAK(T423), pBAD(S136), and BAD. (G) Ba/F3 cells expressing p190-BCR-ABL1 were treated with IODVA1 (3 μM) and levels of active Cdc42 (Cdc42-GTP) and Rho (Rho-GTP) were assessed by pull-down at the indicated times using GST-PAK-GBD and GST-Rhotekin respectively, followed by immunoblotting (left panel) and densitometric quantification (right panel). (H) Morphology of GFP^+ leukemic colonies (left panel). […]\n(§2) Having shown that IODVA1 prevents formation of F-actin suprastructures, such as lamellipodia and circular dorsal ruffles, within minutes of cell incubation (FIGS. 5A-5B and Gasilina et al., 2020) we focused on Rac. […] We thus tested if IODVA1 inhibits Rac activation and measured levels of Rac-GTP during treatment using PAK-GBD (GTPase-binding domain). […]"}, "[3]": {"test_system": "active Rac (Rac-GTP) in p190-BCR-ABL Ba/F3 cells", "assay": "Active GTPase pull-down (GST-PAK-GBD)", "assay_type": "cell-based, murine", "method": "as §1, §2"}, "[4]": {"biological_target": "p50GAP (Homo sapiens, UniProt Q07960)", "sequence (Q07960 whole entry)": "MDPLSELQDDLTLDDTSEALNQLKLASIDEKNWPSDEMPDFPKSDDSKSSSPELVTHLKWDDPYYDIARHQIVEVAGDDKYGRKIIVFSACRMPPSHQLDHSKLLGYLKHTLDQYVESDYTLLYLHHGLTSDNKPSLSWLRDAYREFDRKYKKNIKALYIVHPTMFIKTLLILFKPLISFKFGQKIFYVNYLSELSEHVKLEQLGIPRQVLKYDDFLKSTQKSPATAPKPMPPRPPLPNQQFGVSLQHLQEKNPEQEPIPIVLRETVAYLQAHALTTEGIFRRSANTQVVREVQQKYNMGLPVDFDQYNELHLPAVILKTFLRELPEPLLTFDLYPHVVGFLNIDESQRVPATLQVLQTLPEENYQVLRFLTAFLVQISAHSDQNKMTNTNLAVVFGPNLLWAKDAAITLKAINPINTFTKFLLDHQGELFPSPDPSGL", "assay": "p50GAP-stimulated GTP-hydrolysis, stopped-flow", "assay_type": "biochemical"}}, "data": [{"smiles": "OC1(c2ccccn2)N=C(Nc2nc3ccccc3[nH]2)N=C1c1ccccn1", "note": "(centres unmarked) [IODVA1, (Z)-2-((1H-benzo[d]imidazol-2-yl)imino)-4,5-di(pyridin-2-yl)-2,5-dihydro-1H-imidazol-5-ol]", "values": [{"measurement": "EC50", "setting": "[1]", "result": 0.68, "unit": "µM"}, {"measurement": "effect on active Cdc42", "setting": "[2]", "result": "less effective"}, {"measurement": "decrease in the levels of active Rac", "setting": "[3]; 3 μM, 10-15 minutes post incubation", "result": 70, "unit": "%"}, {"measurement": "IC50", "setting": "[3]; Mus musculus, BaF3, 1 h, read-out: IC50, Rac activation", "result": 1, "unit": "µM"}, {"measurement": "stimulation of the activity of p50GAP", "setting": "[4]", "result": "does not stimulate"}]}]}
